# Target: GLP-1R (Homo sapiens, UniProt P43220)
# Experiment: GLP-1R activation: cAMP increase in CHO cells stably expressing GLP-1R
# Assay type: cell-based
# Details: EC50 (nM)
# Chain of GLP-1R (P43220 24-463): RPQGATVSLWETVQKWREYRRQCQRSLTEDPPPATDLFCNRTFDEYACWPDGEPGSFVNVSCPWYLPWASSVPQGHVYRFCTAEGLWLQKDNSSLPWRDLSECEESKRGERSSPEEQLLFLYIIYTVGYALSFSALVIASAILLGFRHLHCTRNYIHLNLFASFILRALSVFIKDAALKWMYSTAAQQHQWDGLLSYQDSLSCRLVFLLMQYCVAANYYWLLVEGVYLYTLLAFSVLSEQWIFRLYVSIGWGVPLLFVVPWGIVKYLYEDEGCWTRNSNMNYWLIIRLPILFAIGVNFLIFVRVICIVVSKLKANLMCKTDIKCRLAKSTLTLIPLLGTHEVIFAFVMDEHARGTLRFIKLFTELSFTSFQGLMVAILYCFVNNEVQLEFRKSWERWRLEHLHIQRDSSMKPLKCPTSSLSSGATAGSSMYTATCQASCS
row,Structure (SMILES),EC50 [nM]
1,COC[C@H](Cn1c(Cc2cc(F)c(-c3cccc(OCc4ccc(C#N)cc4F)n3)cc2F)nc2ccc(C(=O)O)cc21)OC [Example 620],7.5
2,COC[C@@H](Cn1c(Cc2cc(F)c(-c3cccc(OCc4ccc(C#N)cc4F)n3)cc2F)nc2ccc(C(=O)O)cc21)OC [Example 621],17.4

# Same assay, conditions: cAMP increase, CHO cells stably expressing GLP-1R, 10 point dose response, 30 minutes incubation; read-out: EC50
row,EC50 [nM],Structure (SMILES)
1,1420,Cc1nc(Cn2c(Cc3cc(F)c(-c4cccc(OCc5ccc(C#N)cc5F)n4)cc3F)nc3ccc(C(=O)O)cc32)oc1C [Example 615]
2,26.9,Cc1cnc(Cn2c(Cc3cc(F)c(-c4cccc(OCc5ccc(C#N)cc5F)n4)cc3F)nc3ccc(C(=O)O)cc32)o1 [Example 616]
3,0.55,N#Cc1ccc(COc2nccc(-c3cc(F)c(Cc4nc5c(F)cc(C(=O)O)cc5n4Cc4ncco4)cc3F)n2)c(F)c1 [Example 617]
4,3.1,CO[C@@H](CO)Cn1c(Cc2cc(F)c(-c3cccc(OCc4ccc(C#N)cc4F)n3)cc2F)nc2ccc(C(=O)O)cc21 [Example 619]
5,2.68,N#Cc1ccc(COc2nccc(-c3ccc(Cc4nc5ccc(C(=O)O)cc5n4Cc4ncco4)cc3F)n2)c(F)c1 [Example 622]
6,4.04,N#Cc1ccc(COc2cccc(-c3cc(F)c(Cc4nc5ccc(C(=O)O)cc5n4CC45CC(CCO4)C5)cc3F)n2)c(F)c1 [Example 623]
7,1.68,N#Cc1ccc(COc2cccc(-c3cc(F)c(Cc4nc5ccc(C(=O)O)cc5n4CC45COC(C4)C5)cc3F)n2)c(F)c1 [Example 624]
8,0.63,N#Cc1ccc(COc2cccc(-c3ccc(Cc4nc5c(F)cc(C(=O)O)cc5n4Cc4ncco4)c(F)c3)n2)c(F)c1 [Example 625]
9,23.9,N#Cc1ccc(COc2nccc(-c3ccc(Cc4nc5ccc(C(=O)O)cc5n4CC45CC(CO4)C5)cc3F)n2)c(F)c1 [Example 626]
10,2.19,COC1(Cn2c(Cc3cc(F)c(-c4cccc(OCc5ccc(C#N)cc5F)n4)cc3F)nc3ccc(C(=O)O)cc32)CCOC1 (stereo not drawn) [Example 627]
11,13.4,N#Cc1ccc(COc2cccc(-c3cc(F)c(Cc4nc5ccc(C(=O)O)cc5n4CCOC4CCC4)cc3F)n2)c(F)c1 [Example 628]
12,1.26,N#Cc1ccc(COc2cccc(-c3cc(F)c(Cc4nc5ccc(C(=O)O)cc5n4CCOC4CC4)cc3F)n2)c(F)c1 [Example 629]
13,39.4,N#Cc1ccc(COc2cccc(-c3cc(F)c(Cc4nc5ccc(C(=O)O)cc5n4[C@H]4CCNC4=O)cc3F)n2)c(F)c1 [Example 630]
14,0.24,N#Cc1ccc(COc2cccc(-c3cc(F)c(Cc4nc5ccc(C(=O)O)c(F)c5n4C[C@@H]4CCO4)cc3F)n2)c(F)c1 [Example 632]
15,0.17,N#Cc1ccc(COc2cccc(-c3ccc(Cc4nc5c(F)cc(C(=O)O)cc5n4C[C@@H]4CCO4)cc3)n2)c(F)c1 [Example 633]
16,0.46,COCCn1c(Cc2cc(F)c(-c3cccc(OCc4ccc(C(F)F)cc4F)n3)cc2F)nc2c(F)cc(C(=O)O)cc21 [Example 635]
17,1.27,COC1(Cn2c(Cc3cc(F)c(-c4cccc(OCc5ccc(C#N)cc5F)n4)cc3F)nc3ccc(C(=O)O)cc32)COC1 [Example 636]
18,2.24,COCC1(Cn2c(Cc3cc(F)c(-c4cccc(OCc5ccc(C#N)cc5F)n4)cc3F)nc3ccc(C(=O)O)cc32)CC1 [Example 638]
19,78.2,CN1CCO[C@H](Cn2c(Cc3cc(F)c(-c4cccc(OCc5ccc(C#N)cc5F)n4)cc3F)nc3ccc(C(=O)O)cc32)C1 [Example 639]
20,16.6,N#Cc1ccc(COc2cccc(-c3cc(F)c(Cc4nc5ccc(C(=O)O)cc5n4CC4CCCCO4)cc3F)n2)c(F)c1 (stereo not drawn) [Example 640]
21,65.9,N#Cc1ccc(COc2cccc(-c3cc(F)c(Cc4nc5ccc(C(=O)O)cc5n4C[C@H]4COCCO4)cc3F)n2)c(F)c1 [Example 641]

row,Structure (SMILES),EC50 [nM]
1,N#Cc1ccc(COc2cccc(-c3cc(F)c(Cc4nc5ccc(C(=O)O)cc5n4[C@@H]4CCNC4=O)cc3F)n2)c(F)c1 [Example 631],74.9

# System: not listed separately
# Experiment: Microsomal stability, human liver microsomes (predicted hepatic clearance)
# Details: predicted from in vitro microsomal stability data
row,Predicted Hepatic Clearance (Pred. Cl.) [mL/min/kg],Structure (SMILES)
1,2.33,Cc1nc(Cn2c(Cc3cc(F)c(-c4cccc(OCc5ccc(C#N)cc5F)n4)cc3F)nc3ccc(C(=O)O)cc32)oc1C [Example 615]
2,8.33,Cc1cnc(Cn2c(Cc3cc(F)c(-c4cccc(OCc5ccc(C#N)cc5F)n4)cc3F)nc3ccc(C(=O)O)cc32)o1 [Example 616]
3,3.67,N#Cc1ccc(COc2nccc(-c3cc(F)c(Cc4nc5c(F)cc(C(=O)O)cc5n4Cc4ncco4)cc3F)n2)c(F)c1 [Example 617]
4,6.67,CO[C@@H](CO)Cn1c(Cc2cc(F)c(-c3cccc(OCc4ccc(C#N)cc4F)n3)cc2F)nc2ccc(C(=O)O)cc21 [Example 619]
5,6.33,N#Cc1ccc(COc2nccc(-c3ccc(Cc4nc5ccc(C(=O)O)cc5n4Cc4ncco4)cc3F)n2)c(F)c1 [Example 622]
6,10.7,N#Cc1ccc(COc2cccc(-c3cc(F)c(Cc4nc5ccc(C(=O)O)cc5n4CC45CC(CCO4)C5)cc3F)n2)c(F)c1 [Example 623]
7,5,N#Cc1ccc(COc2cccc(-c3cc(F)c(Cc4nc5ccc(C(=O)O)cc5n4CC45COC(C4)C5)cc3F)n2)c(F)c1 [Example 624]
8,2.67,N#Cc1ccc(COc2cccc(-c3ccc(Cc4nc5c(F)cc(C(=O)O)cc5n4Cc4ncco4)c(F)c3)n2)c(F)c1 [Example 625]
9,7.83,N#Cc1ccc(COc2nccc(-c3ccc(Cc4nc5ccc(C(=O)O)cc5n4CC45CC(CO4)C5)cc3F)n2)c(F)c1 [Example 626]
10,7.83,COC1(Cn2c(Cc3cc(F)c(-c4cccc(OCc5ccc(C#N)cc5F)n4)cc3F)nc3ccc(C(=O)O)cc32)CCOC1 (stereo not drawn) [Example 627]
11,3.17,N#Cc1ccc(COc2cccc(-c3cc(F)c(Cc4nc5ccc(C(=O)O)cc5n4CCOC4CCC4)cc3F)n2)c(F)c1 [Example 628]
12,1.83,N#Cc1ccc(COc2cccc(-c3cc(F)c(Cc4nc5ccc(C(=O)O)cc5n4CCOC4CC4)cc3F)n2)c(F)c1 [Example 629]
13,2.67,N#Cc1ccc(COc2cccc(-c3cc(F)c(Cc4nc5ccc(C(=O)O)cc5n4[C@H]4CCNC4=O)cc3F)n2)c(F)c1 [Example 630]
14,1.83,N#Cc1ccc(COc2cccc(-c3cc(F)c(Cc4nc5ccc(C(=O)O)c(F)c5n4C[C@@H]4CCO4)cc3F)n2)c(F)c1 [Example 632]
15,4.83,N#Cc1ccc(COc2cccc(-c3ccc(Cc4nc5c(F)cc(C(=O)O)cc5n4C[C@@H]4CCO4)cc3)n2)c(F)c1 [Example 633]
16,1.83,COCCn1c(Cc2cc(F)c(-c3cccc(OCc4ccc(C(F)F)cc4F)n3)cc2F)nc2c(F)cc(C(=O)O)cc21 [Example 635]
17,6.5,COC1(Cn2c(Cc3cc(F)c(-c4cccc(OCc5ccc(C#N)cc5F)n4)cc3F)nc3ccc(C(=O)O)cc32)COC1 [Example 636]
18,1.83,COCC1(Cn2c(Cc3cc(F)c(-c4cccc(OCc5ccc(C#N)cc5F)n4)cc3F)nc3ccc(C(=O)O)cc32)CC1 [Example 638]
19,5,CN1CCO[C@H](Cn2c(Cc3cc(F)c(-c4cccc(OCc5ccc(C#N)cc5F)n4)cc3F)nc3ccc(C(=O)O)cc32)C1 [Example 639]
20,8.5,N#Cc1ccc(COc2cccc(-c3cc(F)c(Cc4nc5ccc(C(=O)O)cc5n4CC4CCCCO4)cc3F)n2)c(F)c1 (stereo not drawn) [Example 640]
21,2.83,N#Cc1ccc(COc2cccc(-c3cc(F)c(Cc4nc5ccc(C(=O)O)cc5n4C[C@H]4COCCO4)cc3F)n2)c(F)c1 [Example 641]

row,Structure (SMILES),Predicted Hepatic Clearance (Pred. Cl.) [mL/min/kg]
1,COC[C@H](Cn1c(Cc2cc(F)c(-c3cccc(OCc4ccc(C#N)cc4F)n3)cc2F)nc2ccc(C(=O)O)cc21)OC [Example 620],6.67
2,COC[C@@H](Cn1c(Cc2cc(F)c(-c3cccc(OCc4ccc(C#N)cc4F)n3)cc2F)nc2ccc(C(=O)O)cc21)OC [Example 621],10.7
3,N#Cc1ccc(COc2cccc(-c3cc(F)c(Cc4nc5ccc(C(=O)O)cc5n4[C@@H]4CCNC4=O)cc3F)n2)c(F)c1 [Example 631],3
